# Measured values published in PMC4478171, “Synthesis, characterization, and preclinical validation of a PET radiopharmaceutical for interrogating Aβ (β-amyloid) plaques in Alzheimer’s disease” (EJNMMI Research, 2015).
# Entries after “also recorded” stand apart in the source; their conditions may differ. Like-named read-outs stand apart in the source and are kept apart here.
# How the values were obtained:
# [1] = biological target: cortical Aβ plaques in AD frontal cortex sections (Homo sapiens, UniProt P05067); test: Autoradiography on AD frontal cortex sections with IHC correlation; type: binding; conditions: 7A […] with 18F-7B 10 nM
# cortical Aβ plaques in AD frontal cortex sections, sequence (P05067 672-711 limits assumed): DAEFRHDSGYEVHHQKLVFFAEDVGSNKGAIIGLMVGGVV
# Procedure: Frozen AD frontal cortex sections (12 μm) were obtained using a TBS Minotome PLUS Cryostat. The tissue sections were thaw-mounted onto Superfrost Plus (Fisherbrand 12-550-15 (Fisherbrand, Leicestershire, UK)) microscope slides, allowed to air dry for 10 to 15 min, and stored at −80°C. For autoradiography, brain sections were brought to room temperature for 5 min and then pre-incubated in assay buffer (30 mM Tris-HCl, pH 7.4 + 0.1% BSA) for 10 min at RT. Sections were incubated with ^18F-7B (300 μL/slide; 10 nM) in the assay buffer for 60 min at room temperature. For determining nonspecific binding, adjacent sections were incubated in the additional presence of 2.5 μM cold ligand 7A. Sections were then washed at RT for 1 min in 30 mM Tris-HCl pH 7.4, 2 min in 70% ethanol/30 mM Tris-HCl, 1 min in 30% ethanol/30 mM Tris-HCl, and 1 min in 30 mM Tris-HCl (washing protocol using literature precedents. Sections were then dried and exposed to phosphor-imaging screen (BAS-MS 2025) for 30 min. Autoradiography images were obtained on a Fuji Bio-Imaging System FLA-7000 (Tokyo, Japan) and analyzed using MultiGauge software (Fuji, Tokyo, Japan). Following exposure to a phosphor-imaging screen, the sections were then blocked for 60 min at room temperature with 3% milk-0.25% Tween 20-PBS buffer. […]
# Aβ plaques = tested on: Aβ plaques; design: method as in PMID 25003699; conditions: transgenic mice; cited from earlier work
# [2] = tested on: Aβ plaques in autopsy-confirmed AD human tissues; design: method as in PMID 25003699; conditions: cited from earlier work
# AD homogenates = AD homogenates (Homo sapiens, UniProt P05067); conditions: cited from earlier work
# AD homogenates, sequence (P05067 672-711 limits assumed): as above
# [3] = comparison values, no reference given; cited from earlier work
# [4] = normal mice, cited from earlier work
compound,measurement,setting,value
"CN(C)c1ccc(/C=C/c2nc3ccc(OCCF)cc3s2)cn1 [7A, (E)-5-(2-(6-(2-fluoroethoxy)benzo[d]thiazol-2-yl)vinyl)-N,N-dimethylpyridin-2-amine]",inhibition of 18F-7B binding in autoradiography,[1],binding was inhibited
same,BBB penetration and plaque labeling by multiphoton imaging,Aβ plaques,could traverse the BBB to label parenchymal plaques in the brain of transgenic mice
same,plaque types labeled,[2],labels diffuse plaques in autopsy-confirmed AD human tissues; also recorded: binding to both diffuse and fibrillary plaques
CNc1ccc(/C=C/c2ccc(OCCOCCOCCF)cc2)cc1 [Florbetaben],BP,AD homogenates,152
same,Bmax,AD homogenates,"2,431 nM"
same,Kd,AD homogenates,16 nM
"CNc1ccc(/C=C/c2ccc(OCCOCCOCCF)nc2)cc1 [Florbetapir, (E)-4-(2-(6-(2-(2-(2-^18F-fluoroethoxy)ethoxy)-ethoxy)pyridin-3-yl)vinyl)-N-methyl benzenamine]",log P,[3],2.4
same,Brain uptake,[4]; 2 min,7.33 ± 1.54 %ID/g
same,Brain uptake,[4]; 2 h,1.80 ± 0.07 %ID/g
same,brain uptake ratio 2 min/2 h,[4],4.07
